This is an account of results in paper PMC6152724, “Secondary Sulfonamides as Effective Lactoperoxidase Inhibitors” (Molecules : A Journal of Synthetic Chemistry and Natural …, 2017).

The structures appear in SMILES notation.

For the experiment, the target named is T1, LPO purified from bovine milk (Bos taurus, UniProt P80025).
T1 construct: from tissue; host or cells: fresh bovine milk
Put plainly: LPO inhibition assay (ABTS oxidation by H2O2, absorbance at 412 nm; Lineweaver–Burk plots). It is filed as biochemical. The settings on record: for Ki / IC50: LPO purified from bovine milk; for Ki: Lineweaver–Burk plots, three inhibitor and five ABTS concentrations, Means ± SD; for IC50: from activity (%)-[inhibitor] regression graphs, ABTS substrate; for Inhibition Type: with respect to ABTS substrate, from Lineweaver–Burk plots. How it is done:
LPO activities were determined by the procedure of Shindler and Bardsley with slight modification. This method is based on the oxidation of chromogenic substrate 2,2′-azino-bis(3-ethylbenzothiazoline-6-sulfonic acid) (ABTS) by hydrogen peroxide (H2O2), which results in a product which had absorbance at 412 nm.
The effects of secondary sulfonamide derivatives (4a–8h) on LPO purified from fresh bovine milk by affinity chromatography technique were previously determined. In our study, LPO activity was measured in the presence of different concentrations of secondary sulfanilamide derivatives (4a–8h). A control sample without secondary sulfonamide was taken as 100%. An activity (%)-[Secondary sulfonamide] plot was drawn. For the determination of the inhibition constant (Ki) values, three different secondary sulfonamide derivative (4a–8h) concentrations were used. Additionally, ABTS was used as a substrate at five different concentrations. Lineweaver–Burk plots (1/V-1/[ABTS]) were obtained for secondary sulfonamide; the Ki and the inhibition type were calculated from these plots. The data obtained were analysed by t-test and the results are given as Means ± SD.

A word on the Ki: it is the dissociation constant of the complex between target and ligand, obtained from inhibition or displacement. In general, IC50 refers to the concentration needed to halve the response being measured. In the case of `Cc1ccnc(NS(=O)(=O)c2ccc(NC(=O)c3ccc(O)cc3)cc2)n1` [7g, N-(sulfamerazine)-p-hydroxybenzamide], the affinity corresponds to a Ki of 3.94 ± 1.1 µM, half-maximal inhibition (IC50) required 1.76 µM and the “Inhibition Type” value is on record as “Non-competitive”.

Consider `NS(=O)(=O)c1ccc(NC(=O)c2ccc(O)cc2)cc1` [7h, N-(sulfanilamide)-p-hydroxybenzamide], for which the affinity, expressed as Ki, was 0.217 ± 0.099 µM; the IC50 was 0.285 µM; the “Inhibition Type” value was “Non-competitive”.

`O=C(Nc1ccc(S(=O)(=O)Nc2nccs2)cc1)c1cc(O)c(O)c(O)c1` [8a, N-(sulfathiazole)-3,4,5-trihydroxybenzamide]: the Ki was 0.025 ± 0.01 µM, the IC50 turned out to be 0.014 µM and the “Inhibition Type” value is given as “Competitive”.

As for `O=C(Nc1ccc(S(=O)(=O)Nc2ncccn2)cc1)c1cc(O)c(O)c(O)c1` [8b, N-(sulfadiazine)-3,4,5-trihydroxybenzamide], the Ki came out at 1.29 ± 0.465 µM, half-maximal inhibition (IC50) was put at 0.715 µM and the “Inhibition Type” value is reported as “Non-competitive”.

Consider `Cc1cc(C)nc(NS(=O)(=O)c2ccc(NC(=O)c3cc(O)c(O)c(O)c3)cc2)n1` [8c, N-(sulfamethazine)-3,4,5-trihydroxybenzamide], for which the Ki is 2.17 ± 0.88 µM, half-maximal inhibition (IC50) was put at 2.53 µM and the “Inhibition Type” value is “Competitive”.

Take `O=C(Nc1ccc(S(=O)(=O)Nc2ccccn2)cc1)c1cc(O)c(O)c(O)c1` [8d, N-(sulfapyridine)-3,4,5-trihydroxybenzamide]: the affinity, expressed as Ki, was 5.85 ± 1.28 µM; the IC50 was determined as 10.2 µM; the “Inhibition Type” value was “Competitive”.

Consider `Cc1noc(NS(=O)(=O)c2ccc(NC(=O)c3cc(O)c(O)c(O)c3)cc2)c1C` [8e, N-(sulfisoxazole)-3,4,5-trihydroxybenzamide], for which the Ki is 1.44 ± 0.52 µM, half-maximal inhibition (IC50) required 1.99 µM and the “Inhibition Type” value is “Competitive”.

With `Cc1nnc(NS(=O)(=O)c2ccc(NC(=O)c3cc(O)c(O)c(O)c3)cc2)s1` [8f, N-(sulfamethizole)-3,4,5-trihydroxybenzamide], the Ki was 293 ± 62 µM, the IC50 stood at 173 µM and the “Inhibition Type” value is “Non-competitive”.

As to `Cc1ccnc(NS(=O)(=O)c2ccc(NC(=O)c3cc(O)c(O)c(O)c3)cc2)n1` [8g, N-(sulfamerazine)-3,4,5-trihydroxybenzamide], the Ki came out at 3.87 ± 0.43 µM, the IC50 amounted to 1.48 µM and the “Inhibition Type” value is recorded as “Non-competitive”.

Consider `NS(=O)(=O)c1ccc(NC(=O)c2cc(O)c(O)c(O)c2)cc1` [8h, N-(sulfanilamide)-3,4,5-trihydroxybenzamide], for which the affinity corresponds to a Ki of 3.1 ± 0.578 µM, the IC50 was determined as 1.78 µM and the “Inhibition Type” value is reported as “Non-competitive”.
